In US20230115176A1 (Ra Pharmaceuticals, Inc., priority 2019, published 2023):

Experiments:
Human C5 = target: T1, Human C5 (Homo sapiens, UniProt P01031); assay: Surface plasmon resonance (SPR), compounds on immobilized human C5 (Example 2, Table 5); assay type: binding; settings: lowest value where a range of compound concentrations were analyzed
T1 construct: purchased Complement Technology
Procedure: Surface plasmon resonance (SPR) technology was used to evaluate affinity, specificity, and kinetics of interactions between compounds and complement protein C5 in real time without the need for labeling.
SensiQ FE SPR system (SensiQ Technologies, Oklahoma City, Okla.) was used to provide sensitive and accurate detection of binding of small molecules to the very large C5 protein (MW=195,000 Da). The chip was prepared by preconditioning the sensor according to the protocol of the SensiQ FE using 10 mM HCl, 50 mM NAOH and 0.1% SDS. The sensor chip was activated by using a mixture of fresh EDAC (1-ethyl-3-(-3-dimethylaminopropyl) carbodiimide) (Sigma Co., St. Louis, Mo.) and NHS (N-hydroxy succinimide) (Sigma Co., St. Louis, Mo.). Human C5 was surface immobilized to a Pioneer Biosensor chip via random amine coupling (>12,000 RU) which makes use of the N-terminus and ε-amino groups of lysine residues of the protein ligand. Immobilization was done by injecting 30-40 μg/ml C5 in 10 mM NaAc pH 4.5 onto designated channels at a rate of 10 μL/minute for 12 minutes, targeting RL>12000 RU for small molecules.
Compounds were diluted in DMSO in a format of 100-fold final concentration and 3-fold serial dilution (5 or 6 dilutions). The 100-fold compounds were transferred to one-fold DMSO-free assay buffer in the 96-well test plate. The compound solution was injected at a rate of 60 μL/minute for 30-60 seconds, followed by 60-90 seconds dissociation time, buffer flushing and/or priming. Blank solution (1% DMSO assay buffer) was run for every 6 injections of compounds. Double reference by subtracting both blank channel and reference channel was applied for data processing. Titration of C5 binding compounds to the C5-immobilized biosensor chip surface led to interactions between C5 and potential binders, and the resulting changes of surface refractive index were sensitively measured by the system.
SPR data were analyzed with the managing software provided by SensiQ and equilibrium dissociation constant (KD) values were determined for each compound. Where a range of compound concentrations were analyzed, the lowest value obtained is presented.

purified human C5 = purified human C5 (Homo sapiens, UniProt P01031); assay: Red blood cell hemolysis assay, optical, absorbance 412 nm (Example 3, Table 6); assay type: cell-based; settings: antibody-sensitized sheep erythrocytes, 1.5% human C5 depleted sera, 0.5 nM human C5; average where replicates
purified human C5, sequence (P01031 19-1676): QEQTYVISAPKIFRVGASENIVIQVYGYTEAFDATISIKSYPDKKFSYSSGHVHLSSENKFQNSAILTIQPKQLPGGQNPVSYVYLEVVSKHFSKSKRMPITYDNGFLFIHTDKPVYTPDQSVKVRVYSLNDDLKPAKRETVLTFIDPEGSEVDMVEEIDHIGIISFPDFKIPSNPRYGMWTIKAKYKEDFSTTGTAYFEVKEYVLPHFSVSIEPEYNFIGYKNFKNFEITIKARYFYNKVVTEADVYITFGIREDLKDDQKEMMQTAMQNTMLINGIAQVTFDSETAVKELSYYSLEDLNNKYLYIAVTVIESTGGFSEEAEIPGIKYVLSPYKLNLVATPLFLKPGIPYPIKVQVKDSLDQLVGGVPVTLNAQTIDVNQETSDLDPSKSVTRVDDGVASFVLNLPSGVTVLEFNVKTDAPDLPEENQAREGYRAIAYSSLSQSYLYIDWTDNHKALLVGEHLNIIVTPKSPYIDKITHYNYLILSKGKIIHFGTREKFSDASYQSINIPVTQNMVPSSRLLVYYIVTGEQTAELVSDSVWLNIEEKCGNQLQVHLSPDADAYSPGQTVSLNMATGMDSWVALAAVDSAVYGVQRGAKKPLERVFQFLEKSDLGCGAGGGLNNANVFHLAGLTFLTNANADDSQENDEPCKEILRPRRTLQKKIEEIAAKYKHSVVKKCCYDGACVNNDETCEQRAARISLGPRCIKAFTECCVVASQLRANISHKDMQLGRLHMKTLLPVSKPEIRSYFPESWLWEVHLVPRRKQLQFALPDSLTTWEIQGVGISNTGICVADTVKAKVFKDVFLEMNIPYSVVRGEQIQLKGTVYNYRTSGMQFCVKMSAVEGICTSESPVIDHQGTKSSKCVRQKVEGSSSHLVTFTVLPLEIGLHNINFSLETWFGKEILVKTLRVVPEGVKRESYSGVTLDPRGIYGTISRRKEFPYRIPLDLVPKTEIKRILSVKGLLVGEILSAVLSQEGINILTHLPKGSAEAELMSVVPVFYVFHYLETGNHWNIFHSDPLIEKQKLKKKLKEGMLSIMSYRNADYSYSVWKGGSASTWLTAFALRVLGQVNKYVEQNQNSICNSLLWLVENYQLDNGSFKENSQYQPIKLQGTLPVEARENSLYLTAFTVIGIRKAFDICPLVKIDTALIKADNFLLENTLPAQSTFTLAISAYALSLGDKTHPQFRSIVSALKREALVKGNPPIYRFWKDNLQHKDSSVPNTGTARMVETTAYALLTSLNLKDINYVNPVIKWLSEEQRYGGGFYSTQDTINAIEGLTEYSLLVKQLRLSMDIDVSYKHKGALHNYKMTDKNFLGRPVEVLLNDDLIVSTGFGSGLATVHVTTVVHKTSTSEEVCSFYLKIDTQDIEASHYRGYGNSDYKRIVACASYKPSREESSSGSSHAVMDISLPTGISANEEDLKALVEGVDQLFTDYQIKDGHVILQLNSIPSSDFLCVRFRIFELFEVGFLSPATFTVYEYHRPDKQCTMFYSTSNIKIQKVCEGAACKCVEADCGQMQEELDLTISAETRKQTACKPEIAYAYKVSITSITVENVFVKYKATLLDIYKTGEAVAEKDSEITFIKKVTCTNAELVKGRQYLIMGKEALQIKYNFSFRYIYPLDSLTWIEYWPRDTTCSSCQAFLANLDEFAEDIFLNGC
Procedure: Experiments were carried out using a red blood cell (RBC) hemolysis assay to assess compound inhibition of RBC lysis. […] The assay was carried out using 1.5% human C5 depleted sera and 0.5 nM purified human C5.
GVB++ buffer (Complement Technology, Tyler, Tex.) was heated at 37° C. for a minimum of 20 minutes. The human C5 depleted sera and purified human C5 were rapidly thawed at 37° C. and then stored on ice or wet ice, respectively. The compound stock (10 mM, DMSO) was serially diluted in 100% DMSO to obtain ten 6-fold dilutions before addition of GVB++. Sera dilution was prepared by adding 5 mL of GVB++ to a 15 mL conical tube, removing 600 μL of the GVB++ and adding 600 μL of the 100% sera. The tube was mixed by inverting three times. A volume of 25 μL of the diluted sera was added to each well so that the final concentration of sera in the well was 1.5%. C5 dilution was prepared by adding 5 mL of GVB++ to a 15 mL conical tube, removing 4 μL of the GVB++ and adding 4 μL of the C5 stock. The tube was mixed by inverting three times. A volume of 25 μL was added to each well so that the final amount of C5 was 0.5 nM in each well. The antibody-sensitized sheep erythrocytes (EAs) were centrifuged at 1,000× gravity at 22° C. for 3 minutes. The supernatant was pipetted off without disrupting the pellet. The pellet was then resuspended in GVB++ with the same volume removed. Resuspended EAs were mixed by gently inverting the tube.
Five controls were run on each plate: (1) EAs only=100 μL EAs+50 μL GVB++ with 4% DMSO+50 μL GVB++; (2) EA+Sera=100 μL EAs+50 μL GVB++ with 4% DMSO+25 μL Sera dilution+25 μL GVB++; (3) EA+C5=100 μL EAs+50 μL GVB++ with 4% DMSO+25 μL C5 dilution+25 μL GVB++; (4) EA+Sera+C5=100 μL EAs+50 μL GVB++ with 4% DMSO+25 μL Sera dilution+25 μL C5; (5) GVB++ Only=200 μL GVB++. Other wells included: GVB++ with 4% DMSO=20 μL DMSO+480 μL GVB++. All samples were analyzed in duplicate. The compound dose response curve was generated using samples prepared with 100 μL EA+50 μL compound dilution+25 μL C5 dilution+25 μL sera dilution.
Test plates were prepared by adding 100 μL of EAs, 50 μL of compound dilution, 25 μL of sera dilution, and 25 μL of C5 dilution to individual wells of a 96-well tissue culture-treated clear microtitre plate (USA Scientific, Ocala, Fla.) and resuspending by pipetting up and down three times. The samples were incubated at 37° C. for one hour. At the completion of the incubation, the plates were centrifuged at 1,000× gravity for 3 minutes. 100 μl of supernatant were transferred to a new plate and the absorbance was read at 412 nm. Data was fit with a log-logit formula producing a dose-response curve and IC50.
“IC50” refers to the half maximal inhibitory concentration, where the value is the concentration of the inhibitor needed to reduce red blood cell hemolysis by half. Where replicate analysis was conducted, average IC50 values are provided along with standard deviation (SD) values.

T1 sequence (P01031 19-1676): as above

Compound	Kd (Human C5)	IC50 (purified human C5)
COc1ccc(NC(=O)NCc2ccccc2O)cc1CCCCC(C)C [SM0005]	37 nM	65.8 nM
COc1ccc([C@H](CO)NC(=O)Nc2ccc(OC)c(OCCCC(C)C)c2)cc1 [SM0008]	45 nM	176 nM
COc1ccc(NC(=O)N[C@@H](C)c2ccccc2)cc1OCCCC(C)C [SM0009]	647 nM	198 nM
COc1ccc(NC(=O)N[C@@H](CO)c2ccccc2)cc1CCCCC(C)C [SM0010]	107 nM	226 nM
COc1ccc(NC(=O)NCc2ccnc3[nH]ccc23)cc1OCCCC(C)C [SM0013]	17 nM	327 nM
COc1ccc(NC(=O)NC(CO)c2ccc(F)cc2)cc1OCCCC(C)C (stereo not drawn) [SM0020]		478 nM
COc1ccc(NC(=O)NC(CO)c2ccccc2F)cc1OCCCC(C)C (stereo not drawn) [SM0024]	130 nM	614 nM
COc1ccc(NC(=O)N[C@@H](CO)c2ccccc2)cc1OCCCCC(F)(F)F [SM0025]	620 nM	675 nM
COc1cccc(C(CO)NC(=O)Nc2ccc(OC)c(OCCCC(C)C)c2)c1 (stereo not drawn) [SM0028]		896 nM
COc1cc(CNC(=O)Nc2ccc(OC)c(OCCCC(C)C)c2)ccc1O [SM0030]	190 nM	936 nM
C=CCCOc1cc(NC(=O)N[C@@H](CO)c2ccccc2)ccc1OC [SM0034]	1400 nM	1100 nM
COc1ccc(NC(=O)NC(C)c2cccnc2)cc1OCCCC(C)C (stereo not drawn) [SM0037]	628 nM	1320 nM
COc1ccc(NC(=O)N[C@@H](CO)c2ccccc2)cc1OCC(C)CC(C)C (stereo partly drawn) [SM0038]	800 nM	1480 nM
COc1ccc(NC(=O)NCc2ccsc2)cc1OCCCC(C)C [SM0039]	210 nM	1490 nM
COc1ccc(NC(=O)NC(CO)c2ccccn2)cc1OCCCC(C)C (stereo not drawn) [SM0040]	110 nM	1620 nM
COc1ccc(CNC(=O)Nc2ccc(OC)c(OCCCC(C)C)c2)cc1 [SM0041]		1800 nM
COc1ncc(NC(=O)N[C@@H](CO)c2ccccc2)cc1OCCCC(C)C [SM0042]	6400 nM	2130 nM
COc1ccc(NC(=O)NCc2cccc3ncccc23)cc1OCCCC(C)C [SM0044]	74 nM	2180 nM
COc1ccc(NC(=O)NCc2ccc(S(N)(=O)=O)cc2)cc1OCCCC(C)C [SM0048]	7200 nM	2540 nM
COc1ccc(NC(=O)NCc2ccccc2CO)cc1OCCCC(C)C [SM0050]	102 nM	2870 nM
COc1ccc(NC(=O)N[C@@H](CO)c2ccccc2)cc1OCCCCl [SM0051]		3060 nM
COc1ccc(NC(=O)NCc2cccs2)cc1OCCCC(C)C [SM0052]	564 nM	3100 nM
COc1ccc(NC(=O)N[C@@H](CO)c2ccccc2)cc1OCCOC1CCC1 [SM0053]	3350 nM	3380 nM

Compound	Kd (Human C5)	IC50 (purified human C5)
COc1ccc(NC(=O)NC(CO)c2cnn(C)c2)cc1OCCCC(C)C (stereo not drawn) [SM0055]		3450 nM
COc1ccc(NC(=O)NCc2ccccc2F)cc1OCCCC(C)C [SM0058]	500 nM	4090 nM
COc1ccc(NC(=O)NCc2cscn2)cc1OCCCC(C)C [SM0059]	113 nM	4390 nM
COc1ccc(NC(=O)N[C@@H](CO)c2ccccc2)cc1Br [SM0060]		4470 nM
COc1ccc(NC(=O)N[C@@H](COC(C)=O)c2ccccc2)cc1OCCCC(C)C [SM0062]	2000 nM	5650 nM
COc1ccc(NC(=O)NCc2cccc(CN(C)C)c2)cc1OCCCC(C)C [SM0063]	6370 nM	6140 nM
COc1ccc(NC(=O)NCc2ccc3nccn3c2)cc1OCCCC(C)C [SM0065]	1600 nM	6670 nM
COc1ccc(NC(=O)N[C@@H]2c3ccccc3C[C@@H]2O)cc1OCCCC(C)C [SM0066]	290 nM	6870 nM
COc1ccc(NC(=O)NCc2cccc(S(C)(=O)=O)c2)cc1OCCCC(C)C [SM0079]		12700 nM
COc1ccc(NC(=O)NC(c2ccccc2F)C(C)O)cc1OCCCC(C)C (stereo not drawn) [SM0082]		14500 nM
COc1ccc(NC(=O)N[C@@H](CO)c2ccccc2)cc1OCC(F)(F)F [SM0085]		16100 nM
COc1ccc(NC(=O)NCc2ccc3ccccc3n2)cc1OCCCC(C)C [SM0086]		16600 nM
COc1ccc(NC(=O)N[C@@H](CO)c2ccccc2)cc1OCc1ccccc1 [SM0088]		18400 nM
COc1ccc(NC(=O)N(C)CCO)cc1OCCCC(C)C [SM0109]	3800 nM	
CCCOc1cc(NC(=O)O[C@@H](C)c2ccccc2)ccc1OC [SM0110]	3900 nM	
COc1ccc(NC(=O)NCC2CCC(F)(F)CC2)cc1OCCCC(C)C [SM0111]	4700 nM	
CCCCCCOc1ccc(NC(=O)N[C@@H](CO)c2ccccc2)cc1 [SM0112]	5500 nM	
COc1ccc(NC(=O)N[C@@H](CO)c2ccccc2)cc1OCc1cncnc1 [SM0114, 1-[(1R)-2-hydroxy-1-phenyl-ethyl]-3-[4-methoxy-3-(pyrimidin-5-ylmethoxy)phenyl] urea]	6400 nM	
COc1ccc(NC(=O)N[C@@H](CO)c2ccccc2)cc1OCCN1CCN(C)CC1 [SM0115]	6700 nM	
CCCCN(C)C(=O)c1cccc(NC(=O)N[C@@H](CO)c2ccccc2)c1 [SM0116, N-butyl-3-[[(1R)-2-hydroxy-1-phenyl-ethyl]carbamoylamino]-N-methyl-benzamide]	690 nM	
COc1ccc(NC(=O)NCCc2ccccc2)cc1OCCCC(C)C [SM0117]	7600 nM	
COc1ccc(NC(=O)N[C@H](CCO)c2ccccc2)cc1OCCCC(C)C [SM0118]	8100 nM	
COc1ccc(NC(=O)NC(CN(C)C)c2ccccc2)cc1OCCCC(C)C (stereo not drawn) [SM0121]	9500 nM	

Further compounds by falling Kd (Human C5), results first:

Kd (Human C5)	Compound	IC50 (purified human C5)
9500 nM	COC[C@H](NC(=O)Nc1ccc(OC)c(OCCCC(C)C)c1)c1ccccc1 [SM0120]	
8600 nM	COc1ccc(NC(=O)NCc2ccncc2)cc1C#CCCC(C)C [SM0046]	2240 nM
6610 nM	COc1ccc(NC(=O)NC(CCO)c2ccccc2)cc1OCCCC(C)C (stereo not drawn) [SM0064]	6450 nM
5300 nM	COc1ccc(NC(=O)N(CCO)c2ccccc2)cc1OCCCC(C)C [SM0057]	4050 nM
4300 nM	COc1ccc(NC(=O)NC(CO)c2ccccc2C)cc1OCCCC(C)C (stereo not drawn) [SM0036]	1240 nM
4100 nM	COc1ccc(NC(=O)NCc2cccnc2)cc1OCCCC(C)C [SM0049]	2790 nM
3900 nM	C=C(NC(=O)Nc1ccc(OC)c(OCCCC(C)C)c1)c1ccccc1 [SM0061]	4990 nM
3200 nM	COc1ccc(NC(=O)N[C@@H](C)c2ccccc2)cc1OCC(C)(C)N(C)C [SM0107]	
3200 nM	COc1ccc(NC(=O)N[C@@H](C)c2ccc(Br)cc2)cc1OCCCC(C)C [SM0108]	
2800 nM	COc1ccc(NC(=O)NCc2ccccn2)cc1OCCCC(C)C [SM0045]	2230 nM
2700 nM	COc1ccc(NC(=O)NCc2ccncc2)cc1OCCCC(C)C [SM0031]	983 nM
2700 nM	COc1ccc(NC(=O)NC(c2ccccc2F)[C@@H](O)CO)cc1OCCCC(C)C (stereo partly drawn) [SM0106]	
1930 nM	COc1ccc(NC(=O)NCc2ccc(CN(C)C)cc2)cc1OCCCC(C)C [SM0043]	2140 nM
830 nM	COc1cccc(CNC(=O)Nc2ccc(OC)c(OCCCC(C)C)c2)c1 [SM0047]	2270 nM
830 nM	COc1ccc(NC(=O)N[C@@H](CO)c2ccccc2)cc1OCCCC#N [SM0119]	
601 nM	COc1ccc(NC(=O)NCc2ccc(S(C)(=O)=O)cc2)cc1OCCCC(C)C [SM0113]	
410 nM	COc1ccc(NC(=O)N[C@@H](CO)c2ccccc2)cc1OCCCCCC(C)C [SM0033]	1100 nM
368 nM	COc1ccc(NC(=O)N(C)Cc2ccccc2)cc1OCCCC(C)C [SM0021]	533 nM

Kd (Human C5)	Compound	IC50 (purified human C5)
320 nM	COc1ccc(NC(=O)NC(CO)c2ccc(Cl)cc2)cc1OCCCC(C)C (stereo not drawn)	3390 nM
290 nM	COc1ccc(NC(=O)NCc2cccc(O)c2)cc1OCCCC(C)C [SM0016]	378 nM
239 nM	COc1ccc(NC(=O)NC(CO)c2ccccc2F)cc1CCCCC(C)C (stereo not drawn) [SM0029]	901 nM
196 nM	COc1ccc(NC(=O)NCc2ccc(O)c(O)c2)cc1OCCCC(C)C [SM0015]	342 nM
172 nM	COc1ccc(NC(=O)NCc2ccccc2C#N)cc1OCCCC(C)C [SM0067]	7360 nM
171 nM	COc1ccc(NC(=O)N2CCC[C@H]2c2ccccc2)cc1OCCCC(C)C [SM0027]	697 nM
114 nM	COc1ccc(NC(=O)NC(CO)c2cccc(F)c2)cc1OCCCC(C)C (stereo not drawn) [SM0018]	420 nM
111 nM	COc1ccc(NC(=O)NCc2ccc(O)cc2)cc1OCCCC(C)C [SM0017]	401 nM
97 nM	COc1ccc(NC(=O)NCc2ccccc2)cc1OCCCC(C)C [SM0026]	685 nM
92 nM	COc1ccc(NC(=O)N[C@@H](CO)c2ccc(F)cc2)cc1OCCCC(C)C [SM0023]	608 nM
90 nM	COc1ccc(NC(=O)NCc2ccccc2OC)cc1CCCCC(C)C [SM0007]	165 nM
84 nM	COc1ccc(NC(=O)NCc2ccc3[nH]ccc3c2)cc1OCCCC(C)C [SM0022]	581 nM
63 nM	COc1ccc(NC(=O)N[C@@H](CO)c2ccccc2)cc1C#CCCC(C)C [SM0014]	335 nM
39 nM	COc1ccc(NC(=O)N[C@@H](CO)c2ccccc2)cc1OCCC1CCCC1 [SM0019]	450 nM
28 nM	COc1ccc(NC(=O)NCc2ccccc2O)cc1OCCCC(C)C [SM0004]	42.6 nM
25 nM	COc1ccc(NC(=O)NC(CO)c2ccco2)cc1OCCCC(C)C (stereo not drawn) [SM0032]	1040 nM
14 nM	COc1ccc(NC(=O)NC(CO)c2ccccc2OC)cc1OCCCC(C)C (stereo not drawn) [SM0003]	26.8 nM
